Experimental data reported in ChEMBL document CHEMBL1139024, “Synthesis and evaluation of an N-acylated photoactivatable analogue of glutathione as probe for glutathione-utilizing enzymes” (Bioorg Med Chem Lett, 2006).

Assay: Inhibition of glutathione S-transferase in rat liver

`O=C(O)CNC(=O)[C@H](CS)NC(=O)CC[C@H](NC(=O)c1ccc(C(=O)c2ccccc2)cc1)C(=O)O` showed an IC50 of 1 mM.
